# Key:
# M1 muscarinic receptor = molecular target: T1, M1 muscarinic receptor (Homo sapiens, UniProt P11229); test: Muscarinic receptor radioligand displacement binding, M1
# T1 sequence (P11229 1-460): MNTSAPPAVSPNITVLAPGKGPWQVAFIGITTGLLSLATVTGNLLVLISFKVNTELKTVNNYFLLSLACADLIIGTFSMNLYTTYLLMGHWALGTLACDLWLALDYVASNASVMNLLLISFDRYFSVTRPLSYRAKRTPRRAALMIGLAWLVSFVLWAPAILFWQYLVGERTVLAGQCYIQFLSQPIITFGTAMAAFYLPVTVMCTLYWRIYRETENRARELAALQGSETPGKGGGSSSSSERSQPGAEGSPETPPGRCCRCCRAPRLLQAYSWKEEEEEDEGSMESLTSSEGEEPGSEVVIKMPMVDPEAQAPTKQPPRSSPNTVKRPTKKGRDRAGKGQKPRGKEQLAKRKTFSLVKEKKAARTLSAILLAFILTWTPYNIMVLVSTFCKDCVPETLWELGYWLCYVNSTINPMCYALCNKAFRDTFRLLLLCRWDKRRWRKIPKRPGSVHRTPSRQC
# M3 muscarinic receptor = M3 muscarinic receptor (Homo sapiens, UniProt P20309); test: Muscarinic receptor radioligand displacement binding, M3
# M5 muscarinic receptor = molecular target: T2, M5 muscarinic receptor (Homo sapiens, UniProt P08912); test: Muscarinic receptor radioligand displacement binding, M5
# T2 sequence (P08912 1-532): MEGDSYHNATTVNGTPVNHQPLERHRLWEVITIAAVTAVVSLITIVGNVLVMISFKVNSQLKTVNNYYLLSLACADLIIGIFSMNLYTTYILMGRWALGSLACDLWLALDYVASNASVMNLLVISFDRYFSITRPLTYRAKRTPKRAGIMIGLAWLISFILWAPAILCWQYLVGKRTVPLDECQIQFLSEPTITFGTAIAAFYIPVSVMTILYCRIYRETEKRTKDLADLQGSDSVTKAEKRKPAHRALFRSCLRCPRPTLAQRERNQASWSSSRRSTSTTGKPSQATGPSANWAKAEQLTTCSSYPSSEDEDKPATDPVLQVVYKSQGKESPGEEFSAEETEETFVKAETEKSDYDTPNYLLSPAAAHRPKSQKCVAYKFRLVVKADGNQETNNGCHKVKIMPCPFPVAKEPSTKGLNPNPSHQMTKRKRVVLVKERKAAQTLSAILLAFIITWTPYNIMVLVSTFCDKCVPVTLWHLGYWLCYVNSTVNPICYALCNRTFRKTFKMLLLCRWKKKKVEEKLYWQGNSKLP
# [1] = system: form deprivation-induced myopia (FDM); test: Form deprivation-induced myopia (FDM) chick model; type: in vivo
# [2] = Solubility of benzyl atropine in surfactants (single excipients); type: physicochemical
# Description: Initially, single excipients were evaluated (Table 8).
# [3] = Concentration of benzyl atropine in surfactant mixtures; type: physicochemical
# [4] = Concentration of benzyl atropine in freshly prepared simplified formulations; type: physicochemical
# Text: Considerable efforts were made to simplify the formulation to reduce the overall amount of surfactants (Table 11).
# The combination of two different species of surfactant was unexpected. […] The efficacy of this “double-buffered” vehicle was unexpected.
# [5] = HPβCD as a solubilizer for benzyl atropine; type: physicochemical; conditions: pH 3.1
# [6] = Solubility screen in two simple vehicles, pH 7.4; conditions: for pH of the formulation / Actual Concentration: pH 7.4; for Actual Concentration: 5 min vortexing
# [7] = Solubilizing mixtures with citrate and acetate buffers; conditions: for Actual Conc. / Final pH: 7.0% PEG-40 Stearate, 5.0% PEG-35 Castor Oil
# [8] = 0.3% Tyloxapol in Phosphate Buffer, pH 2.8
# [9] = 2.0% Poloxamer 407 in Phosphate Buffer, pH 2.8
# [10] = 4.0% Tween 80 in Phosphate Buffer, pH 2.9
# [11] = 5.0% PEG-35 Castor Oil in Acetic Acid Buffer, pH 2.8
# [12] = 5.0% PEG-35 Castor Oil in Phosphate Buffer, pH 2.8
# [13] = 7.0% PEG0-40 Stearate in Phosphate Buffer, pH 3.0
# [14] = 20% DMSO in Phosphate Buffer, pH 2.7
# [15] = 50% Glycerol in Phosphate Buffer in Phosphate Buffer, pH 2.5
# [16] = 50% Propylene Glycol in Phosphate Buffer, pH 2.9
# [17] = 0.78% Sodium Chloride in 30 mM Acetate Buffer, pH 4.55
# [18] = 3.5% PEG-400, 0.46% Sodium Chloride in 30 mM Acetate Buffer, pH 4.62
# [19] = 3.5% PEG-400, 5.0% PEG-35 Castor Oil, 0.37% Sodium Chloride in 30 mM Acetate Buffer, pH 4.67
# [20] = 5.0% PEG-35 Castor Oil, 0.81% Sodium Chloride in 30 mM Acetate Buffer, pH 4.57
# [21] = 7.0% PEG-40 Stearate, 0.58% Sodium Chloride in 30 mM Acetate Buffer, pH 4.64
# [22] = 7.0% PEG-40 Stearate, 0.65% Sodium Chloride in 5 mM Phosphate Buffer/30 mM Acetate Buffer
# [23] = 0.43% Sodium Chloride, 10.0% HPβCD in 20 mM Phosphate Buffer
# [24] = 2.21% Mannitol, 10.0% HPβCD in 20 mM Phosphate Buffer
# [25] = 2.5% HPβCD in 20 mM Phosphate Buffer
# [26] = 5.0% HPβCD in 20 mM Phosphate Buffer
# [27] = 10.0% HPβCD in 20 mM Phosphate Buffer
# [28] = 20 mM Citrate Buffer, pH 3.0 before API, 5.0% PEG-400
# [29] = 20 mM Citrate Buffer, pH 4.65 before API, 5.0% PEG-400
# [30] = 30 mM Acetate Buffer, pH 4.38 before API, 3.5% PEG-400
# [31] = 30 mM Acetate Buffer, pH 4.56 before API, 3.5% PEG-400
# [32] = 30 mM Acetate Buffer, pH 5.11 before API, 5.0% PEG-400
# Chain of M3 muscarinic receptor (P20309 whole entry): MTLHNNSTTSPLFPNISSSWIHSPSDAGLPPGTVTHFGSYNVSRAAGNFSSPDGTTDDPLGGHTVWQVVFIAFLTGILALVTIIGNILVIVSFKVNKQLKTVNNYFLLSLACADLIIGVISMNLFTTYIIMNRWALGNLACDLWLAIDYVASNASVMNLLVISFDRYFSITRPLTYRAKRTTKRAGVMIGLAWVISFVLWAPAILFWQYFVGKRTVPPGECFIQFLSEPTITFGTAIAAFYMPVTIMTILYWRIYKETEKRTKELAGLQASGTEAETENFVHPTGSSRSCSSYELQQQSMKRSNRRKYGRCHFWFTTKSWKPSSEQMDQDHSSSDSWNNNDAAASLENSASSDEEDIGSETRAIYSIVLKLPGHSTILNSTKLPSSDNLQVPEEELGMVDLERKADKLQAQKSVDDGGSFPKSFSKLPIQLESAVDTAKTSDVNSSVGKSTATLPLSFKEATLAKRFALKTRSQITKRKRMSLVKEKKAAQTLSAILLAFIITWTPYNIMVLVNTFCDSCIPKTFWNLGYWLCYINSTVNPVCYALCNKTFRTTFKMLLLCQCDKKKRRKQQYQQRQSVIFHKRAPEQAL
smiles,measurement,setting,value
"CN1C2CCC1CC(OC(=O)C(CO)(Cc1ccccc1)c1ccccc1)C2 (racemic) [Benzyl Atropine, benzyl atropine]",Ki,M1 muscarinic receptor,830 nM
same,binding to the receptor (in words),M1 muscarinic receptor,bind weakly
same,binding to the receptor (in words),M3 muscarinic receptor,not to bind at all
same,binding to the receptor (in words),M5 muscarinic receptor,not to bind at all
same,efficacy compared with atropine in FDM chick model,"[1]; at approximately ten-fold lower concentration than atropine, FIG. 1 Panel B (24 nmol vs 240 nmol)",as effective as atropine
same,efficacy in FDM chick model,"[1]; intravitreal injection day 2 and day 4, readout day 5, FIG. 1 Panel A",effective
same,change in refractive error (goggled eye value minus ungoggled eye value),"[1]; with respect to 5% v/v ethanol solution, FIG. 1 Panel A",significantly decreased
same,Actual Concentration,"[2]; 50% Propylene Glycol in 30 mM Phosphate Buffer, pH 7.4",1.85 mg/g
same,Actual Concentration,[2]; PEG-400 (neat),8.01 mg/g
same,drug solubility,[2]; PEG-400 (neat),0.8%
same,Actual Concentration,[2]; Polypropylene Glycol (neat),7.86 mg/g
same,Actual Concentration,[2]; Propylene Glycol (neat),6.96 mg/g
same,Actual Concentration,[3]; [8],0.19 mg/g
same,pH after API Dissolution,[3]; [8],7.3
same,Actual Concentration,[3]; [9],0.20 mg/g
same,pH after API Dissolution,[3]; [9],7.4
same,Actual Concentration,[3]; [10],0.58 mg/g
same,pH after API Dissolution,[3]; [10],7.3
same,Actual Concentration,[3]; [11],1.16 mg/g
same,pH after API Dissolution,[3]; [11],3.1
same,Actual Concentration,[3]; [12],0.68 mg/g
same,pH after API Dissolution,[3]; [12],7.3
same,Actual Concentration,[3]; [13],0.47 mg/g
same,pH after API Dissolution,[3]; [13],7.4
same,Actual Concentration,[3]; [14],0.30 mg/g
same,pH after API Dissolution,[3]; [14],8.1
same,Actual Concentration,[3]; [15],0.84 mg/g
same,pH after API Dissolution,[3]; [15],7.6
same,Actual Concentration,[3]; [16],1.56 mg/g
same,pH after API Dissolution,[3]; [16],8.3
same,Actual Concentration,[4]; [17],0.92 mg/g
same,Final Osmolality,[4]; [17],263.5 mOsm/kg
same,Final pH,[4]; [17],7.2
same,Actual Concentration,[4]; [18],1.79 mg/g
same,Final Osmolality,[4]; [18],287 mOsm/kg
same,Final pH,[4]; [18],7.1
same,Actual Concentration,[4]; [19],3.95 mg/g
same,Final Osmolality,[4]; [19],293 mOsm/kg
same,Final pH,[4]; [19],7.4
same,Actual Concentration,[4]; [20],3.02 mg/g
same,Final Osmolality,[4]; [20],306.5 mOsm/kg
same,Final pH,[4]; [20],7.5
same,Actual Concentration,[4]; [21],4.62 mg/g
same,Final Osmolality,[4]; [21],264.5 mOsm/kg
same,Final pH,[4]; [21],7.4
same,Actual Concentration,[4]; [22],5.32 mg/g
same,Final Osmolality,[4]; [22],291 mOsm/kg
same,Final pH,[4]; [22],6.4
same,highest achievable concentration that did not re-precipitate,"[4]; in the presence of 3.5% PEG-400, 5% PEG-35 castor oil, and 0.37% NaCl",3.9 mg/g
same,Actual Concentration,[5]; [23],5.92 mg/g
same,Final pH,[5]; [23],5.8
same,Actual Concentration,[5]; [24],5.23 mg/g
same,Final pH,[5]; [24],5.7
same,Concentration Dissolved,[5]; [25],3.53 mg/g
same,Final pH,[5]; [25],7.1
same,Concentration Dissolved,[5]; [26],4.16 mg/g
same,Final pH,[5]; [26],7.0
same,Concentration Dissolved,[5]; [27],4.51 mg/g
same,Final pH,[5]; [27],7.1
same,pH of the formulation,[6]; 30 mM Phosphate Buffer,7.9
same,Actual Concentration,[6]; 30 mM Phosphate Buffer,0.29 mg/g
same,pH of the formulation,[6]; Phosphate Buffered Saline,8.0
same,Actual Concentration,[6]; Phosphate Buffered Saline,0.30 mg/g
same,dissolution in vehicle (in words),[6]; both vehicles: 30 mM phosphate buffer pH 7.4 and phosphate-buffered saline pH 7.4,did not entirely dissolve
same,Actual Conc.,[7]; [28],5.73 mg/g
same,Final pH,[7]; [28],4.4
same,Actual Conc.,[7]; [29],2.38 mg/g
same,Final pH,[7]; [29],5.8
same,Actual Conc.,[7]; [30],5.49 mg/g
same,Final pH,[7]; [30],4.9
same,Actual Conc.,[7]; [31],5.42 mg/g
same,Final pH,[7]; [31],5.5
same,Actual Conc.,[7]; [32],3.59 mg/g
same,Final pH,[7]; [32],7.7
same,saturated solubility limit,"[7]; from stability assessment, compound crashed out of solution over storage",~5 mg/g
